Results from patent publication US9649282B2, “Diversion- and/or abuse-resistant compositions and methods for making the same” (Invincible Biotechnology, LLC, priority 2010, dated 2017).

Assay: Abuse resistance through nasal inhalation: aminophylline in blood serum after intranasal administration to mice (HPLC)
Type: in vivo, male mice (CBA C50 Black F1 line)
Settings: 10 μL of solution, blood from retro-orbital sinus about 3 to 5 minutes after administration, pool of three mice
Procedure: 10 μL of each experimental solution was administered to a corresponding pool of three mice. About 3 to 5 minutes after administration, blood samples were drawn from the retro-orbital sinuses (sinus retroorbitalis) of the mice, combined and centrifuged for 10 minutes at 3000 rpm. The collected serum was then deproteinized with 0.3 M trichloroacetic acid at a serum to acid ratio of about 0.2 ml to 1.0 ml. To complete the precipitation of proteins, the samples were maintained in a thermostat at 20° C. for about 20 minutes and then filtered through a 0.45 micron acetate cellulose filter. The filtrates were analyzed for aminophylline concentration by injecting 20 μL samples into an HPLC, Schimadzu LC-20AD with photodiode array detector (PDA) and Phenomenex Luna 5μ C18, […] column. Acetonitrile in 0.1M phosphoric acid was used as a Mobile phase with linear gradient of acetonitrile of 1-50% vol., pressure 6.3 Mpa, flow rate 0.5 ml/min, and detector wavelength of about 272 nm.
The chromatograms of serums from Controls 1 and 2 with aminophylline concentration of 4% by weight and 24% by weight are shown in FIGS. 9 and 10, respectively. Similar chromatograms were prepared for all of the samples. The areas of the aminophylline peaks that are proportional to its concentration in the blood taken from the retro-orbital sinus, are presented in Table 6 below: […]

| Compound | Aminophylline Concentration in Blood Serum [µg/mL] |
| --- | --- |
| Cn1c(=O)c2[nH]cnc2n(C)c1=O [Control-1, aminophylline] | 19.91 |
| Cn1c(=O)c2[nH]cnc2n(C)c1=O [Control-2, aminophylline] | 20.09 |
